Patent US20230181696A1, “POLYPEPTIDE DRUG FOR PREVENTING AND/OR TREATING NEUROBLASTOMA AND USE THEREOF” (ZHUHAI TENGBAI PHARMACEUTICAL CO., LTD., priority 2020, published 2023)
Peptide text beside a SMILES is read from it.

Experiment: Body weight and normal-side kidney weight of tumor-bearing nude mice (toxic side effects)
Settings: for Body weight of tumor-bearing nude mice: mean ± SEM; for Body weight, End / Relative body weight, End / Kidney weight on normal side / Body weight, Start / Relative body weight, Start: mean±SEM; for Renal weight/body mass index on normal side / Kidney weight on normal side: left kidney, end of experiment
From the text: Three days after the surgical modeling, the tumor-bearing mice were imaged with IVIS Spectrum CT in vivo, and the tumor-bearing mice were randomized over groups of 10 mice according to the luminescence intensity in the software analysis results.
Animals were observed daily and weighed every other day. Luminescence was detected with four times of in vivo imaging at day 1 (i.e., 3 days after surgical modeling), day 6, day 12 and day 15 from the experimental grouping. The time of in vivo imaging for luminescence detection was adjusted according to the survival and physical condition of the animals. At the end of the experiment (day 16) the animals were executed by neck dislocation, the kidney tissue and tumor masses was isolated for weighing and photographing, and the tumor masses were preserved in 4% formaldehyde solution for routine pathological testing.
The statistical analysis between groups was one-way ANOVA and Tukey’s test for pairwise comparison, and the statistical analysis between groups at different time points was two-way ANOVA and Bonferroni test for pairwise comparison.

Compound: CSCC[C@H](NC(=O)CNC(=O)CNC(=O)[C@H](CO)NC(=O)[C@H](CC(C)C)NC(=O)[C@@H]1CCCN1C(=O)[C@H](CO)NC(=O)[C@H](CC(N)=O)NC(=O)[C@H](CC(C)C)NC(=O)[C@H](C)NC(=O)[C@@H](NC(=O)[C@H](CC(C)C)NC(=O)[C@H](Cc1c[nH]cn1)NC(=O)[C@H](CC(C)C)NC(=O)[C@@H](NC(=O)[C@@H]1CCCN1C(=O)[C@H](CCC(N)=O)NC(=O)[C@H](Cc1ccccc1)NC(=O)[C@H](CC(=O)O)NC(=O)[C@H](CCCNC(=N)N)NC(=O)[C@H](Cc1c[nH]cn1)NC(=O)[C@H](CO)NC(=O)[C@H](Cc1c[nH]cn1)NC(=O)[C@H](CCSC)NC(=O)[C@H](CC(=O)O)NC(=O)CNC(=O)[C@H](CCCNC(=N)N)NC(=O)[C@H](CC(=O)O)NC(=O)CNC(=O)[C@@H](N)CCCNC(=N)N)C(C)C)C(C)C)C(=O)O [HYD-PEP06] (H-RGDRGDMHSHRDFQPVLHLVALNSPLSGGM-OH)
- Body weight of tumor-bearing nude mice (5 mg/kg i.v. once a day, Day 1): 20.8 ± 0.6 g
- Body weight of tumor-bearing nude mice (5 mg/kg i.v. once a day, Day 4): 21.8 ± 0.6 g
- Body weight of tumor-bearing nude mice (5 mg/kg i.v. once a day, Day 7): 21.2 ± 0.6 g
- Body weight of tumor-bearing nude mice (5 mg/kg i.v. once a day, Day 10): 20.9 ± 0.5 g
- Body weight of tumor-bearing nude mice (5 mg/kg i.v. once a day, Day 13): 21.1 ± 0.4 g
- Body weight of tumor-bearing nude mice (5 mg/kg i.v. once a day, Day 16): 21.0 ± 0.4 g
- Body weight, End (5 mg/kg i.v. x15): 21.0 ± 0.4 g
- Relative body weight, End (5 mg/kg i.v. x15): 101.6 ± 1.9%
- Renal weight/body mass index on normal side (5 mg/kg i.v. x15): 0.85+0.01%
- Kidney weight on normal side (5 mg/kg i.v. x15): 0.178 ± 0.003 g
- Body weight, Start (5 mg/kg i.v. x15): 20.8 ± 0.6 g
- Relative body weight, Start (5 mg/kg i.v. x15): 100.0±0.0%
- Body weight of tumor-bearing nude mice (10 mg/kg i.v. once a day, Day 1): 20.2 ± 0.4 g
- Body weight of tumor-bearing nude mice (10 mg/kg i.v. once a day, Day 4): 21.9 ± 0.3 g
- Body weight of tumor-bearing nude mice (10 mg/kg i.v. once a day, Day 7): 21.1 ± 0.3 g
- Body weight of tumor-bearing nude mice (10 mg/kg i.v. once a day, Day 10): 21.2 ± 0.3 g
- Body weight of tumor-bearing nude mice (10 mg/kg i.v. once a day, Day 13): 21.3 ± 0.2 g
- Body weight of tumor-bearing nude mice (10 mg/kg i.v. once a day, Day 16): 21.0 ± 0.4 g
- Body weight, End (10 mg/kg i.v. x15): 21.0 ± 0.4 g
- Relative body weight, End (10 mg/kg i.v. x15): 104.0±2.2%
- Renal weight/body mass index on normal side (10 mg/kg i.v. x15): 0.85±0.02%
- Kidney weight on normal side (10 mg/kg i.v. x15): 0.178 ± 0.006 g
- Body weight, Start (10 mg/kg i.v. x15): 20.2 ± 0.4 g
- Relative body weight, Start (10 mg/kg i.v. x15): 100.0±0.0%
- Body weight of tumor-bearing nude mice (20 mg/kg i.v. once a day, Day 1): 20.3 ± 0.4 g
- Body weight of tumor-bearing nude mice (20 mg/kg i.v. once a day, Day 4): 21.6 ± 0.4 g
- Body weight of tumor-bearing nude mice (20 mg/kg i.v. once a day, Day 7): 20.9 ± 0.5 g
- Body weight of tumor-bearing nude mice (20 mg/kg i.v. once a day, Day 10): 20.9 ± 0.5 g
- Body weight of tumor-bearing nude mice (20 mg/kg i.v. once a day, Day 13): 21.3 ± 0.6 g
- Body weight of tumor-bearing nude mice (20 mg/kg i.v. once a day, Day 16): 21.3 ± 0.6 g
- Body weight, End (20 mg/kg i.v. x15): 21.3 ± 0.6 g
- Relative body weight, End (20 mg/kg i.v. x15): 104.9±3.3%
- Renal weight/body mass index on normal side (20 mg/kg i.v. x15): 0.86+0.01%
- Kidney weight on normal side (20 mg/kg i.v. x15): 0.182 ± 0.005 g
- Body weight, Start (20 mg/kg i.v. x15): 20.3 ± 0.4 g
- Relative body weight, Start (20 mg/kg i.v. x15): 100.0±0.0%
- Kidney weight, kidney weight/body mass index in the normal side (left side) and body weight vs model control group (5, 10, 20 mg/kg i.v. x15): No significant differences
- Toxic side effects (at the effective dose (5-20 mg/kg i.v. x15)): did not show significant toxic side effects
